Data reported in the supplement of paper PMC10307832.

Legend:
Assay in all cases: relative viability (nuclei count vs DMSO), 5 days (fraction); higher = more cells survive
Trametinib + Navitoclax = compound: CC(=O)Nc1cccc(-n2c(=O)n(C3CC3)c(=O)c3c(Nc4ccc(I)cc4F)n(C)c(=O)c(C)c32)c1 [Trametinib] + CC1(C)CCC(c2ccc(Cl)cc2)=C(CN2CCN(c3ccc(C(=O)NS(=O)(=O)c4ccc(N[C@H](CCN5CCOCC5)CSc5ccccc5)c(S(=O)(=O)C(F)(F)F)c4)cc3)CC2)C1 [Navitoclax] (partner 0.5 µM)
Summary of the method: (§1)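 Lung cancer cell lines in 1536-well plates were dosed by pin tool the day after seeding, either with one drug alone or with a fixed anchor-drug dose plus five library-drug doses (not always all listed) in √10 steps. After 5 days, cells were fixed and their nuclei stained in one step (final 0.05% Triton X-100, 1% formaldehyde, 1 ug/ml Hoechst), then counted on 4× images. Relative viability is the nuclei count in treated wells divided by that in vehicle wells. Values are medians of duplicate plates.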

Trametinib + Crizotinib = compound: CC(=O)Nc1cccc(-n2c(=O)n(C3CC3)c(=O)c3c(Nc4ccc(I)cc4F)n(C)c(=O)c(C)c32)c1 [Trametinib] + C[C@@H](Oc1cc(-c2cnn(C3CCNCC3)c2)cnc1N)c1c(Cl)ccc(F)c1Cl [Crizotinib] (partner 1 µM)
Summary of the method: as §1

Trametinib + Tozasertib = compound: CC(=O)Nc1cccc(-n2c(=O)n(C3CC3)c(=O)c3c(Nc4ccc(I)cc4F)n(C)c(=O)c(C)c32)c1 [Trametinib] + Cc1cc(Nc2cc(N3CCN(C)CC3)nc(Sc3ccc(NC(=O)C4CC4)cc3)n2)n[nH]1 [Tozasertib] (partner 0.1 µM)
Summary of the method: as §1

[1] = compound: CN1C=C(C2=CC=CC=C21)/C=C\3/C4=C(C=CC=N4)NC3=O + Nc1nc2[nH]cc(CCc3ccc(C(=O)N[C@@H](CCC(=O)O)C(=O)O)cc3)c2c(=O)[nH]1 [Pemetrexed] (partner 0.2 µM)
Summary of the method: as §1

Cell Line	relative viability (Trametinib + Navitoclax; first compound 0.0025 µM)	relative viability (Trametinib + Navitoclax; first compound 0.007906 µM)	relative viability (Trametinib + Navitoclax; first compound 0.025 µM)	relative viability (Trametinib + Navitoclax; first compound 0.07906 µM)	relative viability (Trametinib + Navitoclax; first compound 0.25 µM)	relative viability (Trametinib + Crizotinib; first compound 0.0025 µM)	relative viability (Trametinib + Crizotinib; first compound 0.007906 µM)	relative viability (Trametinib + Crizotinib; first compound 0.025 µM)	relative viability (Trametinib + Crizotinib; first compound 0.07906 µM)	relative viability (Trametinib + Crizotinib; first compound 0.25 µM)	relative viability (Trametinib + Tozasertib; first compound 0.0025 µM)	relative viability (Trametinib + Tozasertib; first compound 0.007906 µM)	relative viability (Trametinib + Tozasertib; first compound 0.025 µM)	relative viability (Trametinib + Tozasertib; first compound 0.07906 µM)	relative viability (Trametinib + Tozasertib; first compound 0.25 µM)	relative viability ([1]; first compound 0.02 µM)	relative viability ([1]; first compound 0.06325 µM)	relative viability ([1]; first compound 0.2 µM)	relative viability ([1]; first compound 0.6325 µM)	relative viability ([1]; first compound 2 µM)
NCI-H2085	1.07	0.9	0.924	0.878	0.81	0.793	0.69	0.698	0.688	0.63	0.721	0.598	0.551	0.561	0.621	0.789	0.927	0.836	0.975	0.967
LK-2	0.745	0.897	0.767	0.946	0.368	0.283	0.217	0.226	0.299	0.241	0.183	0.17	0.186	0.217	0.184	0.192	0.241	0.199	0.309	0.297
RERF-LC-KJ	0.948	1.09	0.968	0.966	0.717	0.794	0.819	0.778	0.664	0.763	0.493	0.545	0.539	0.509	0.387	0.436	0.482	0.493	0.475	0.471
LU99A	0.855	0.779	0.465	0.363	0.235	0.554	0.489	0.473	0.368	0.214	0.234	0.272	0.232	0.244	0.232	0.156	0.182	0.176	0.173	0.186
NCI-H2347	0.678	0.328	0.143	0.198	0.215	0.698	0.476	0.252	0.464	0.433	0.509	0.33	0.176	0.154	0.185	0.445	0.454	0.444	0.423	0.426
HARA	0.984	1.1	1.14	1.06	0.976	0.9	0.907	0.807	0.638	0.336	0.12	0.101	0.0849	0.108	0.0591	0.24	0.24		0.263	0.216
NCI-H2228	0.782	0.803	0.706	0.626	0.548	0.33	0.398	0.438	0.254	0.247	0.239	0.209	0.207	0.211	0.132	0.337	0.305	0.349	0.372	0.365
EKVX	0.728	0.627	0.37	0.376	0.371	0.779	0.778	0.765	0.564	0.4	0.387	0.397	0.335	0.227	0.26	0.371			0.354	0.352
